Assay results: patent US20200023001A1, “GlycoFix (Structurally And Functionally Repaired Endothelial Glycocalyx)” (Northeastern University, priority 2018, published 2020)

Test system: RFPEC glycocalyx (adsorbed BSA)
Experiment: Whole glycocalyx thickness and coverage by BSA immunofluorescence (Example 2)
Format: cell-based, rat
Conditions: Hep III 2 h then 16 h, with or without 59 μg/mL HS
Procedure: RFPEC Culture. A rat fat pad endothelial cell (RFPEC) line^37 was utilized, originally isolated from rat epididymal fat pads by Dr. Mia Thi of Albert Einstein College of Medicine (Bronx, N.Y., USA). RFPECs were selected for their ability to naturally express a robust glycocalyx.^38 These ECs were cultured in tissue culture flasks at 37° C. and 5% CO2 in a humidified environment with Dulbecco's Modified Eagle's Medium (DMEM) supplemented with 10% fetal bovine serum (FBS) and 1% penicillin-streptomycin, all purchased from Thermo Fisher Scientific (Waltham, Mass., USA). For 3-(4,5-dimethylthiazol-2-yl)-5-(3-carboxymethoxyphenyl)-2-(4-sulfophenyl)-2H-tetrazolium (MTS) assays (Sigma-Aldrich Co., St Louis, Mo., USA), RFPECs were seeded at 3.7×10^4 cells/cm^2 in tissue culture-treated, 96-well plates (Falcon; Thermo Fisher Scientific) and imaged on a SpectraMax M3 plate reader to show cell viability and metabolic activity. For confocal imaging, RFPECs were seeded onto 12-mm diameter round glass cover slips (Thermo Fisher Scientific) at 1×10^4 cells/cm^2 in tissue culture-treated six-well plates (Falcon; Thermo Fisher Scientific). […]
RFPEC glycocalyx treatments. […] The red fluorescence detected from conjugated Alexa Fluor 647 was attributed to AuNP within the RFPEC monolayers (details are given in the “Confocal imaging and analysis” section). […]

heparan sulfate [HS]
whole glycocalyx (BSA) coverage of the EC layer: 75.2%+4.0% | whole glycocalyx (BSA) thickness (mean±SEM): 2.41±0.3 μm
